Laboratory results taken from PubChem BioAssay (NCI).
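A five-concentration, 48-hour dose response in 96-well plates underlies each endpoint, interpolated linearly between surrounding concentrations. GI50 is the concentration that inhibits growth by half. TGI: total growth inhibition.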

What was measured:
Experiment in all cases: NCI anticancer screen, dose series, 48 h
[1] = tested on: NCI-H23 lung
[2] = tested on: SN12C renal
[3] = tested on: SK-MEL-5 melanoma
[4] = tested on: EKVX NSCLC
[5] = tested on: SF-539 CNS
[6] = tested on: MDA-MB-435
[7] = tested on: TK-10 renal
[8] = tested on: UACC-257 melanoma
[9] = tested on: OVCAR-8 ovarian
[10] = tested on: CCRF-CEM leukemia

SMILES: C/C=C(/C)C(=O)OC1C=C(CO)C(=O)C(OC(=O)C2(C)OC2C)C1C(C)C (stereo unspecified)
- GI50 [1]: 2090 nM
- TGI [1]: 4880 nM
- GI50 [2]: 1450 nM
- TGI [2]: 2990 nM
- GI50 [3]: 1560 nM
- TGI [3]: 3040 nM
- GI50 [4]: 2750 nM
- TGI [4]: 7630 nM
- GI50 [5]: 1860 nM
- TGI [5]: 3380 nM
- GI50 [6]: 1490 nM
- TGI [6]: 2880 nM
- GI50 [7]: 1880 nM
- TGI [7]: 3360 nM
- GI50 [8]: 1370 nM
- TGI [8]: 2750 nM
- GI50 [9]: 2070 nM
- TGI [9]: 5540 nM
- GI50 [10]: 653 nM
- TGI [10]: 5250 nM

SMILES: O=C(Nc1nc2ccc(OC(F)(F)F)cc2s1)c1ccc(F)cc1
- GI50 [1]: 2900 nM
- TGI [1]: 8730 nM
- GI50 [2]: 2580 nM
- TGI [2]: 8210 nM
- GI50 [3]: 2450 nM
- TGI [3]: 6600 nM
- GI50 [4]: 2650 nM
- TGI [4]: 10600 nM
- GI50 [5]: 2260 nM
- TGI [5]: 6950 nM
- GI50 [6]: 2980 nM
- TGI [6]: > 100000 nM
- GI50 [7]: 4060 nM
- TGI [7]: > 100000 nM
- GI50 [8]: 3570 nM
- TGI [8]: 26700 nM
- GI50 [9]: 4220 nM
- TGI [9]: > 100000 nM
- GI50 [10]: 3960 nM
- TGI [10]: > 100000 nM

SMILES: CC[C@]1(O)CC2CN(CCc3c([nH]c4ccccc34)C(C(=O)OC)(c3cc4c(cc3OC)N(C=O)[C@H]3[C@@](O)(C(=O)OC)[C@H](OC(C)=O)[C@]5(CC)[C@@H]6C[C@@H]6CN6CC[C@]43[C@@H]65)C2)C1 (stereo partly specified)
- GI50 [1]: < 3.25 nM
- GI50 [2]: < 3.25 nM
- TGI [2]: > 32500 nM
- GI50 [3]: < 3.25 nM
- TGI [3]: 11.9 nM
- GI50 [4]: < 3.25 nM
- TGI [4]: > 32500 nM
- GI50 [5]: < 3.25 nM
- TGI [5]: < 3.25 nM
- GI50 [6]: < 3.25 nM
- TGI [6]: < 3.25 nM
- GI50 [7]: < 3.25 nM
- TGI [7]: 17500 nM
- GI50 [8]: < 3.25 nM
- TGI [8]: 4370 nM
- GI50 [9]: < 3.25 nM
- GI50 [10]: < 3.25 nM
- TGI [10]: 155 nM

SMILES: CC1(C)CCC2(C(=O)O)C(O)CC3(C)C(=CCC4C5(C)CCC(OC6OCC(O)C(O)C6OC6OCC(O)C(O)C6OC6OCC(O)C(OC7OC(CO)C(O)C(O)C7O)C6O)C(C)(C)C5CCC43C)C2C1 (stereo unspecified)
- TGI [1]: 49700 nM
- TGI [2]: 76500 nM
- TGI [3]: > 100000 nM
- TGI [4]: > 100000 nM
- TGI [5]: > 100000 nM
- TGI [6]: 93000 nM
- TGI [7]: > 100000 nM
- TGI [8]: > 100000 nM
- TGI [9]: > 100000 nM
- TGI [10]: 71900 nM

SMILES: CN1C(=O)[C@@H](CC2CCCC2)N(C2CCCC2)c2nc(Nc3cc(Cl)c(O)c(Cl)c3)ncc21
- GI50 [1]: 31300 nM
- TGI [1]: > 100000 nM
- GI50 [2]: 21400 nM
- TGI [2]: > 100000 nM
- GI50 [3]: 17400 nM
- TGI [3]: 32900 nM
- GI50 [4]: 22400 nM
- TGI [4]: > 100000 nM
- GI50 [5]: 19800 nM
- TGI [5]: > 100000 nM
- GI50 [6]: 27800 nM
- TGI [6]: > 100000 nM
- GI50 [7]: 27200 nM
- TGI [7]: > 100000 nM
- GI50 [8]: 25100 nM
- TGI [8]: > 100000 nM
- GI50 [9]: 28400 nM
- TGI [9]: > 100000 nM
- GI50 [10]: 18600 nM
- TGI [10]: 84200 nM

SMILES: COc1cc2c3c(n(CCCNCCCCN)c(=O)c2cc1OC)-c1cc2c(cc1C3=O)OCO2
- GI50 [1]: 1630 nM
- TGI [1]: 10700 nM
- GI50 [2]: 373 nM
- TGI [2]: 5890 nM
- GI50 [3]: 2950 nM
- TGI [3]: 19200 nM
- GI50 [4]: 18600 nM
- TGI [4]: 42700 nM
- GI50 [5]: 191 nM
- TGI [5]: 2740 nM
- GI50 [6]: 6110 nM
- TGI [6]: 20400 nM
- GI50 [7]: 773 nM
- TGI [7]: 10100 nM
- GI50 [8]: 16800 nM
- TGI [8]: 54700 nM
- GI50 [9]: 1910 nM
- TGI [9]: 8600 nM
- TGI [10]: > 40100 nM

SMILES: CN(C)C/C=C/C(=O)Nc1ccc(C(=O)Nc2cccc(Nc3ncc(Cl)c(-c4c[nH]c5ccccc45)n3)c2)cc1
- GI50 [1]: 25.7 nM
- TGI [1]: 133 nM
- GI50 [2]: 24.9 nM
- GI50 [3]: 35 nM
- TGI [3]: > 100000 nM
- GI50 [4]: 30 nM
- TGI [4]: 283 nM
- GI50 [5]: 19.9 nM
- TGI [5]: 57.5 nM
- GI50 [6]: 35.2 nM
- TGI [6]: 274 nM
- GI50 [7]: 60.2 nM
- TGI [7]: 1340 nM
- GI50 [8]: 21.6 nM
- TGI [8]: > 100000 nM
- GI50 [9]: 42.8 nM
- TGI [9]: > 100000 nM
- GI50 [10]: < 10 nM
- TGI [10]: > 100000 nM

SMILES: COc1ccc(-c2cc(-c3ccc(Cl)cc3)nc(SCCCC(=O)NO)n2)cc1OC
- GI50 [1]: 1290 nM
- TGI [1]: 5530 nM
- GI50 [2]: 819 nM
- TGI [2]: 5640 nM
- GI50 [3]: 1030 nM
- TGI [3]: 2400 nM
- GI50 [4]: 1040 nM
- TGI [4]: 8890 nM
- GI50 [5]: 1280 nM
- TGI [5]: 3000 nM
- GI50 [6]: 1420 nM
- TGI [6]: 3120 nM
- GI50 [7]: 537 nM
- TGI [7]: 8280 nM
- GI50 [8]: 1810 nM
- TGI [8]: 4890 nM
- GI50 [9]: 486 nM
- TGI [9]: > 21000 nM
- GI50 [10]: 488 nM
- TGI [10]: 33400 nM

SMILES: COc1cc(C(=O)/C=C/c2cccnc2Nc2ccc(Cl)cc2)cc(OC)c1OC
- GI50 [1]: 1580 nM
- TGI [1]: 3240 nM
- GI50 [2]: 1460 nM
- TGI [2]: 2860 nM
- GI50 [3]: 1500 nM
- TGI [3]: 2840 nM
- GI50 [4]: 1610 nM
- TGI [4]: 3160 nM
- GI50 [5]: 1710 nM
- TGI [5]: 3110 nM
- GI50 [6]: 1490 nM
- TGI [6]: 3360 nM
- GI50 [7]: 1870 nM
- TGI [7]: 3350 nM
- GI50 [8]: 1500 nM
- TGI [8]: 2920 nM
- GI50 [9]: 1630 nM
- TGI [9]: 4310 nM
- GI50 [10]: 369 nM
- TGI [10]: 4870 nM
